The values that follow come from patent publication US9227971B2, “Pyrazolo[1,5-a]pyrimidine compounds as mTOR inhibitors” (Merck Sharp & Dohme Corp., priority 2010, dated 2016).

Test [1] has as its system phosphorylated 4E-BP1 Thr37/46 (p4E-BP1 Thr37/46), mTORC1 activity, PC3 cells. Put plainly: mTOR target engagement assay, immunofluorescent cell-based, p4E-BP1 Thr37/46 readout (mTORC1 activity). The note with it: read-out: p4E-BP1 Thr37/46 IC50. The essentials:
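PTEN-mutant PC3 prostate cells were treated with serially diluted compound in 5% FBS F12 medium (0.25% DMSO) for ninety minutes at 37° C, glyoxal-fixed, then immunostained overnight at 4° C for p4E-BP1 Thr37/46 with an Alexa Fluor 488 secondary. IC50 came from four-parameter fits of fluorescence, DMSO-only wells defining 100%.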

Test [2] has as its system phosphorylated AKT Ser473 (pAKT S473), mTORC2 activity, PC3 cells. Put plainly: mTOR target engagement assay, immunofluorescent cell-based, pAKT S473 readout (mTORC2 activity). Put shortly: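 After blocking, cells were stained overnight at 4 °C with anti-pAKT S473 antibody, then a fluorescent secondary; inhibition was read as reduced fluorescence intensity.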
Where [3] appears, read: Homo sapiens, PC-3, PC3 cells, compound treatment ninety minutes at 37° C.
[4] abbreviates: Homo sapiens, PC-3, Table 3-1, PC3 cells.
The mark [5] stands for this setting: Homo sapiens, PC-3, Table 6-1, PC3 cells.

Read-outs that look alike come from different tables or passages of the source.

With `COc1ccc(-c2ccc(-c3cnn4c(N)c(C(C)=O)c([C@@H]5C[C@H]6CC[C@@H](C5)N6C(=O)c5nnc[nH]5)nc34)cn2)cc1` [Compound 1.1.46, 1-(5-((1R,3s,5S)-8-(4H-1,2,4-triazole-3-carbonyl)-8-azabicyclo[3.2.1]octan-3-yl)-7-amino-3-(6-(4-methoxyphenyl)pyridin-3-yl)pyrazolo[1,5-a]pyrimidin-6-yl)ethanone], the IC50 in test [1] (setting [3]) and in test [2] (setting [3]) was 1 to 100 nM throughout.

Regarding `Cc1csc(-c2ccc(-c3cnn4c(N)c(S(C)(=O)=O)c([C@@H]5C[C@H]6CC[C@@H](C5)N6C(=O)c5cn[nH]n5)nc34)cn2)n1` [Compound 3.189, ((1R,3s,5S)-3-(7-amino-6-(methylsulfonyl)-3-(6-(4-methylthiazol-2-yl)pyridin-3-yl)pyrazolo[1,5-a]pyrimidin-5-yl)-8-azabicyclo[3.2.1]octan-8-yl)(2H-1,2,3-triazol-4-yl)methanone], the IC50 in test [1] (setting [4]) and in test [2] (setting [4]) was 1000 to 10000 nM each time.

For the compound `CC(C)(O)c1ncc(-c2cnn3c(N)c(S(C)(=O)=O)c([C@@H]4C[C@H]5CC[C@@H](C4)N5C(=O)c4nnc[nH]4)nc23)cc1Cl` [Compound 3.158, ((1R,3s,5S)-3-(7-amino-3-(5-chloro-6-(2-hydroxypropan-2-yl)pyridin-3-yl)-6-(methylsulfonyl)pyrazolo[1,5-a]pyrimidin-5-yl)-8-azabicyclo[3.2.1]octan-8-yl)(4H-1,2,4-triazol-3-yl)methanone], the IC50 in test [1] (setting [4]) and in test [2] (setting [4]) was 1 to 100 nM each time.

`CC(=O)c1c([C@@H]2C[C@H]3CC(O)[C@@H](C2)N3C(=O)c2nc[nH]n2)nc2c(-c3ccc(-c4ccccc4)nc3)cnn2c1N` (stereo partly drawn) [Compound 8.34, 1-(7-amino-5-((1S,3R,5R)-6-hydroxy-8-(1H-1,2,4-triazole-3-carbonyl)-8-azabicyclo[3.2.1]octan-3-yl)-3-(6-phenylpyridin-3-yl)pyrazolo[1,5-a]pyrimidin-6-yl)ethanone]: the IC50 was in the range of 1 to 100 nM in test [1] (Homo sapiens, PC-3, PC3 cells) and 1 to 100 nM in test [2] (Homo sapiens, PC-3, PC3 cells).

For the compound `CS(=O)(=O)c1c([C@@H]2C[C@H]3CC[C@@H](C2)N3C(=O)c2nnc[nH]2)nc2c(-c3ccc(-c4ccc(F)c(F)c4)nc3)cnn2c1N` [Compound 3.44, ((1R,3s,5S)-3-(7-amino-3-(6-(3,4-difluorophenyl)pyridin-3-yl)-6-(methylsulfonyl)pyrazolo[1,5-a]pyrimidin-5-yl)-8-azabicyclo[3.2.1]octan-8-yl)(4H-1,2,4-triazol-3-yl)methanone], the IC50 in test [1] (setting [4]) and in test [2] (setting [4]) was 1 to 100 nM in each case.

As for `Nc1c(C2CC2)c([C@@H]2C[C@H]3CC[C@@H](C2)N3C(=O)c2nnc[nH]2)nc2c(-c3ccc(-c4ncc[nH]4)nc3)cnn12` [Compound 6.2, ((1R,3s,5S)-3-(3-(6-(1H-imidazol-2-yl)pyridin-3-yl)-7-amino-6-cyclopropylpyrazolo [1,5-a]pyrimidin-5-yl)-8-azabicyclo[3.2.1]octan-8-yl)(4H-1,2,4-triazol-3-yl)methanone], the IC50 in test [1] (setting [5]) and in test [2] (setting [5]) was 1 to 100 nM in each case.

Consider `Cc1nnc(C(=O)N2[C@@H]3CC[C@H]2C[C@H](c2nc4c(-c5ccc(-c6nc(C)c(C)s6)nc5)cnn4c(N)c2S(C)(=O)=O)C3)[nH]1` [Compound 3.197, ((1R,3s,5S)-3-(7-amino-3-(6-(4,5-dimethylthiazol-2-yl)pyridin-3-yl)-6-(methylsulfonyl)pyrazolo[1,5-a]pyrimidin-5-yl)-8-azabicyclo[3.2.1]octan-8-yl)(5-methyl-4H-1,2,4-triazol-3-yl]methanone], for which the IC50 in test [1] (setting [4]) and in test [2] (setting [4]) was 100 to 1000 nM in each case.

On to `CC(=O)c1c([C@@H]2C[C@H]3CC[C@@H](C2)N3C(=O)c2nnc[nH]2)nc2c(-c3ccc(-c4cc(C)[nH]n4)nc3)cnn2c1N` [Compound 1.1.95, 1-(5-((1R,3s,5S)-8-(4H-1,2,4-triazole-3-carbonyl)-8-azabicyclo[3.2.1]octan-3-yl)-7-amino-3-(6-(5-methyl-1H-pyrazol-3-yl)pyridin-3-yl)pyrazolo[1,5-a]pyrimidin-6-yl)ethanone], for which the IC50 in test [1] (setting [3]) and in test [2] (setting [3]) was 1000 to 10000 nM each time.

`CCC(=O)c1ccc(-c2cnn3c(N)c(C(C)=O)c([C@@H]4C[C@H]5CC[C@@H](C4)N5C(=O)c4nnc[nH]4)nc23)cn1` [Compound 1.1.83, 1-(5-(5-((1R,3s,5S)-8-(4H-1,2,4-triazole-3-carbonyl)-8-azabicyclo[3.2.1]octan-3-yl)-6-acetyl-7-aminopyrazolo[1,5-a]pyrimidin-3-yl)pyridin-2-yl)propan-1-one]: the IC50 in test [1] (setting [3]) and in test [2] (setting [3]) was 100 to 1000 nM each time.

With `CC(=O)c1c([C@@H]2C[C@H]3CC[C@@H](C2)N3C(=O)c2cc[nH]c2)nc2c(-c3ccc(-c4ccccc4)nc3)cnn2c1N` [Compound 1.1.41, 1-(5-((1R,3s,5S)-8-(1H-pyrrole-3-carbonyl)-8-azabicyclo[3.2.1]octan-3-yl)-7-amino-3-(6-phenylpyridin-3-yl)pyrazolo[1,5-a]pyrimidin-6-yl)ethanone], the IC50 in test [1] (setting [3]) and in test [2] (setting [3]) was 1 to 100 nM in each case.

For the compound `CC(=O)c1c([C@@H]2C[C@H]3CC[C@@H](C2)N3C(=O)c2nnc[nH]2)nc2c(-c3cnc(NC4CC4)nc3)cnn2c1N` [Compound 8.49, 1-(5-((1R,3s,5S)-8-(4H-1,2,4-triazole-3-carbonyl)-8-azabicyclo[3.2.1]octan-3-yl)-7-amino-3-(2-(cyclopropylamino)pyrimidin-5-yl)pyrazolo[1,5-a]pyrimidin-6-yl)ethanone], the IC50 in test [1] (PC3 cells) and in test [2] (PC3 cells) was 1 to 100 nM throughout.

As for `CS(=O)(=O)c1c([C@@H]2C[C@H]3CC[C@@H](C2)N3C(=O)c2cc3cccnc3[nH]2)nc2c(-c3ccc(-c4ccccc4)nc3)cnn2c1N` [Compound 3.77, ((1R,3s,5S)-3-(7-amino-6-(methylsulfonyl)-3-(6-phenylpyridin-3-yl)pyrazolo[1,5-a]pyrimidin-5-yl)-8-azabicyclo[3.2.1]octan-8-yl)(1H-pyrrolo[2,3-b]pyridin-2-yl)methanone], the IC50 in test [1] (setting [4]) is above 10000 nM; in test [2] (setting [4]), 1000 to 10000 nM.

As for `CC(=O)c1c([C@@H]2C[C@H]3CC[C@@H](C2)N3C(=O)c2nnc[nH]2)nc2c(-c3ccc(C(F)(F)F)nc3)cnn2c1N` [Compound 1.1.104, 1-(5-((1R,3s,5S)-8-(4H-1,2,4-triazole-3-carbonyl)-8-azabicyclo[3.2.1]octan-3-yl)-7-amino-3-(6-(trifluoromethyl)pyridin-3-yl)pyrazolo[1,5-a]pyrimidin-6-yl)ethanone], the IC50 in test [1] (setting [3]) and in test [2] (setting [3]) was 100 to 1000 nM in each case.

Regarding `CS(=O)(=O)c1c([C@@H]2C[C@H]3CC[C@@H](C2)N3C(=O)c2nc(C(F)(F)F)n[nH]2)nc2c(-c3ccc(-c4ccccc4)nc3)cnn2c1N` [Compound 3.99, ((1R,3s,5S)-3-(7-amino-6-(methylsulfonyl)-3-(6-phenylpyridin-3-yl)pyrazolo[1,5-a]pyrimidin-5-yl)-8-azabicyclo[3.2.1]octan-8-yl)(3-(trifluoromethyl)-1H-1,2,4-triazol-5-yl)methanone], the IC50 in test [1] (setting [4]) and in test [2] (setting [4]) was 1000 to 10000 nM throughout.

For `COc1nnc(C(=O)N2C3CCC2CC(c2nc4c(-c5ccc(-c6ccccc6)nc5)cnn4c(N)c2C2CC2)C3)[nH]1` [Compound 8.103, ((1R,3s,5S)-3-(7-amino-6-cyclopropyl-3-(6-phenylpyridin-3-yl)pyrazolo[1,5-a]pyrimidin-5-yl)-8-azabicyclo[3.2.1]octan-8-yl)(5-methoxy-4H-1,2,4-triazol-3-yl)methanone], the IC50 was 100 to 1000 nM in test [1] (Homo sapiens, PC-3, PC3 cells) and 100 to 1000 nM in test [2] (Homo sapiens, PC-3, PC3 cells).

On to `COc1c(F)cc(-c2ccc(-c3cnn4c(N)c(S(C)(=O)=O)c([C@@H]5C[C@H]6CC[C@@H](C5)N6C(=O)c5nnc[nH]5)nc34)cn2)cc1F` [Compound 3.49, ((1R,3s,5S)-3-(7-amino-3-(6-(3,5-difluoro-4-methoxyphenyl)pyridin-3-yl)-6-(methylsulfonyl)pyrazolo[1,5-a]pyrimidin-5-yl)-8-azabicyclo[3.2.1]octan-8-yl)(4H-1,2,4-triazol-3-yl)methanone], for which the IC50 in test [1] (setting [4]) and in test [2] (setting [4]) was 100 to 1000 nM each time.

On to `CC(=O)c1c([C@@H]2C[C@H]3CC[C@@H](C2)N3C(=O)c2nnc[nH]2)nc2c(-c3ccc(-c4ncc[nH]4)nc3)cnn2c1N` [Compound 6.4, 1-(3-(6-(1H-imidazol-2-yl)pyridin-3-yl)-5-((1R,3s,5S)-8-(4H-1,2,4-triazole-3-carbonyl)-8-azabicyclo[3.2.1]octan-3-yl)-7-aminopyrazolo[1,5-a]pyrimidin-6-yl)ethanone], for which the IC50 in test [1] (setting [5]) and in test [2] (setting [5]) was 1 to 100 nM each time.

On to `CC(=O)c1c([C@@H]2C[C@H]3CC[C@@H](C2)N3C(=O)c2nnc[nH]2)nc2c(-c3ccc(-c4nnn(C)n4)nc3)cnn2c1N` [Compound 1.1.63, 1-(5-((1R,3s,5S)-8-(4H-1,2,4-triazole-3-carbonyl)-8-azabicyclo[3.2.1]octan-3-yl)-7-amino-3-(6-(2-methyl-2H-tetrazol-5-yl)pyridin-3-yl)pyrazolo[1,5-a]pyrimidin-6-yl)ethanone], for which the IC50 in test [1] (setting [3]) and in test [2] (setting [3]) was 1 to 100 nM each time.
